Experiments:
[1] = molecular target: T1, PDI-M (PtPDI-M) (Populus trichocarpa, UniProt B9IAL5); assay: NADPH/AtNTRB-coupled DTNB reduction, absorbance at […] nm; format: biochemical; conditions: 200 μM NADPH, 2 μM AtNTRB, 100 μM DTNB, 0.2 μM PDI, pH 8.0, 25°C
T1 construct: gene POPTR_014G160000; pET-15b, His-tagged; E. coli BL21(DE3) pSBET; a°-a-b organisation
T1 sequence (B9IAL5 25-434): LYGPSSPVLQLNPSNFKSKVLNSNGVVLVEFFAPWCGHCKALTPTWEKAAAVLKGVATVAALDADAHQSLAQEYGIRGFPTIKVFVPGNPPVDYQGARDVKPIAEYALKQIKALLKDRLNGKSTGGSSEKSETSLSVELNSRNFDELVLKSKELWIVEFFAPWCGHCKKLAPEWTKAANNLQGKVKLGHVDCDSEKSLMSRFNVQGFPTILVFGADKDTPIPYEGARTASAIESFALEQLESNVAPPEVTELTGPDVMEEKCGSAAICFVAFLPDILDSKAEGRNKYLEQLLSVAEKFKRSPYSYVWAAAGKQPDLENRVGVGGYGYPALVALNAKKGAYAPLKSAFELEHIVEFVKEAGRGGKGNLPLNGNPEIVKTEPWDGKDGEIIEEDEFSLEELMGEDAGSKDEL

[2] = molecular target: T2, PDI-A (PtPDI-A) (Populus trichocarpa, UniProt B9HQP9); assay: UV-visible absorption, iron and sulfide quantification, size-exclusion chromatography; format: binding; conditions: as isolated after E. coli expression, anaerobic purification; pH 8.0; cluster proposed to bridge a dimer; cluster type not definitively assigned
T2 construct: gene POPTR_009G004500; pET-15b, His-tagged; E. coli BL21(DE3) pSBET; purified anaerobically; ca 15 kDa; dimeric and probable octameric forms; WCKHC active site
T2 sequence (B9HQP9 27-147): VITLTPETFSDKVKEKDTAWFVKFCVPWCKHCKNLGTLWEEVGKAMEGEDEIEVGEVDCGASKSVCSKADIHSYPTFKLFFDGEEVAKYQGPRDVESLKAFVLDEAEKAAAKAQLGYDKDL

Compound | DTNB reduction activity [1] | UV-visible absorption, iron and sulfide quantification, size-exclusion chromatog [2]
O=C(O)c1cc(SSc2ccc([N+](=O)[O-])c(C(=O)O)c2)ccc1[N+](=O)[O-] [DTNB] | PDI-L1a was more efficient than PDI-M and PDI-A was inactive (Fig 2C) | 
[S]1[Fe][S][Fe]1 [[Fe2S2] cluster] |  | results could be consistent with PDI-A binding a [Fe2S2] cluster into a dimer

— publication PMC5375154, “Atypical protein disulfide isomerases (PDI): Comparison of the molecular and catalytic properties of poplar PDI-A and PDI-M with PDI-L1A” (PLoS ONE, 2017)
